Article PMC7765401, “Antiproliferative and Antiangiogenic Properties of New VEGFR-2-targeting 2-thioxobenzo[g]quinazoline Derivatives (In Vitro)” (Molecules, 2020)
Where “and” joins values, the source holds several entries; their conditions need not be identical. Equal values may be shown once. Read-outs that look alike come from different tables or passages of the source.

Legend:
HepG2 cells [1] = assay: Cell-cycle analysis by flow cytometry (PI), HepG2; format: cell-based, human; details: HepG2, 48 h at the IC50 of the compound
Protocol: (§1) To investigate whether the tested compounds could arrest HepG2 and MCF-7 mitotic cell division, cell distributions at cell-cycle phases were analyzed by flow cytometry following their treatment with the vehicle or the indicated compound at its IC50 concentration. Cells and samples were prepared as previously reported, and a PI (ab139418) Flow Cytometry Kit (Abcam, Cambridge, UK) was used in accordance with the manufacturer’s protocol. In brief, both HepG2 and MCF-7 cells were separate, plated into six-well plates at a density of 0.6 × 10^6 cells/well in DMEM growth medium supplemented with 10% FBS. Cells were incubated for 24 h at 37 °C and 5% CO2 prior to exposure to either the vehicle (DMSO) as the control or 13, 14, or 15, at their IC50 concentrations. […] All cells were incubated for 48 h, washed with cold PBS after being harvested to single-cell suspensions by trypsinization, and fixed with 70% ethanol. The fixed cells were rehydrated in PBS prior to being lysed in a prepared solution of PI, Triton X-100, and RNase. Finally, the cells were kept at 37 °C for 15 min and analyzed using a FACS Caliber flow cytometer (BD Biosciences and Co., Franklin Lakes, NJ, USA).

[2] = tested on: MCF-7 human cancer-cell line; assay: MTT antiproliferative assay, MCF-7; format: cell-based
Protocol: (§2) Selected compounds were evaluated in vitro for their antiproliferative activities against HepG2 and MCF-7 human cancer-cell lines using MTT assays. Cell viabilities and IC50 values were obtained and compared with those of the control, doxorubicin (Table 1).
(§3) The antiproliferative activity of the test compounds against HepG2, and MCF-7 human cancer-cell lines were evaluated by MTT assay. The detailed methodology procedure was reported. […]

MCF-7 cells [3] = assay: Cell-cycle analysis by flow cytometry (PI), MCF-7; format: cell-based, human; details: MCF-7, 48 h at the IC50 of the compound
Protocol: as §1

HepG2 cells [4] = assay: Apoptosis by annexin-V FITC/PI double staining, HepG2; format: cell-based, human; details: HepG2, 48 h at the IC50 of the compound
Protocol: (§4) Apoptosis was detected for both HepG2 and MCF-7cells using the same preparation and sample treatment conditions as those used for cell-cycle analysis. The manufacturer’s instructions for the annexin-V FITC apoptosis detection kit (K101, Biovision, Milpitas, CA, USA) were followed. In brief, treated cells were detached after 48 h by trypsinization, washed twice with cold PBS, and stained with 5 μL of annexin-V fluorescein isothiocyanate (annexin-V FITC) and 5 μL of PI in the binding buffer for 15 min at 37 °C. Finally, the processed cells were analyzed using a FACS Caliber flow cytometer (BD Biosciences and Co., Franklin Lakes, NJ, USA).

VEGFR-2 (KDR) = biological target: T1, VEGFR-2 (KDR) (Homo sapiens, UniProt P35968); assay: In vitro inhibition of VEGFR-2 (KDR) kinase assay kit; format: biochemical; details: for Fold Relative to Sorafenib: VEGFR-2 IC50 relative to sorafenib; for IC50: luminescence kinase kit, 0.0–10.0 μM range, read-out: IC50 nM, VEGFR-2 enzyme
T1 construct: purchased Cat. #40325
T1 sequence (P35968 20-1356): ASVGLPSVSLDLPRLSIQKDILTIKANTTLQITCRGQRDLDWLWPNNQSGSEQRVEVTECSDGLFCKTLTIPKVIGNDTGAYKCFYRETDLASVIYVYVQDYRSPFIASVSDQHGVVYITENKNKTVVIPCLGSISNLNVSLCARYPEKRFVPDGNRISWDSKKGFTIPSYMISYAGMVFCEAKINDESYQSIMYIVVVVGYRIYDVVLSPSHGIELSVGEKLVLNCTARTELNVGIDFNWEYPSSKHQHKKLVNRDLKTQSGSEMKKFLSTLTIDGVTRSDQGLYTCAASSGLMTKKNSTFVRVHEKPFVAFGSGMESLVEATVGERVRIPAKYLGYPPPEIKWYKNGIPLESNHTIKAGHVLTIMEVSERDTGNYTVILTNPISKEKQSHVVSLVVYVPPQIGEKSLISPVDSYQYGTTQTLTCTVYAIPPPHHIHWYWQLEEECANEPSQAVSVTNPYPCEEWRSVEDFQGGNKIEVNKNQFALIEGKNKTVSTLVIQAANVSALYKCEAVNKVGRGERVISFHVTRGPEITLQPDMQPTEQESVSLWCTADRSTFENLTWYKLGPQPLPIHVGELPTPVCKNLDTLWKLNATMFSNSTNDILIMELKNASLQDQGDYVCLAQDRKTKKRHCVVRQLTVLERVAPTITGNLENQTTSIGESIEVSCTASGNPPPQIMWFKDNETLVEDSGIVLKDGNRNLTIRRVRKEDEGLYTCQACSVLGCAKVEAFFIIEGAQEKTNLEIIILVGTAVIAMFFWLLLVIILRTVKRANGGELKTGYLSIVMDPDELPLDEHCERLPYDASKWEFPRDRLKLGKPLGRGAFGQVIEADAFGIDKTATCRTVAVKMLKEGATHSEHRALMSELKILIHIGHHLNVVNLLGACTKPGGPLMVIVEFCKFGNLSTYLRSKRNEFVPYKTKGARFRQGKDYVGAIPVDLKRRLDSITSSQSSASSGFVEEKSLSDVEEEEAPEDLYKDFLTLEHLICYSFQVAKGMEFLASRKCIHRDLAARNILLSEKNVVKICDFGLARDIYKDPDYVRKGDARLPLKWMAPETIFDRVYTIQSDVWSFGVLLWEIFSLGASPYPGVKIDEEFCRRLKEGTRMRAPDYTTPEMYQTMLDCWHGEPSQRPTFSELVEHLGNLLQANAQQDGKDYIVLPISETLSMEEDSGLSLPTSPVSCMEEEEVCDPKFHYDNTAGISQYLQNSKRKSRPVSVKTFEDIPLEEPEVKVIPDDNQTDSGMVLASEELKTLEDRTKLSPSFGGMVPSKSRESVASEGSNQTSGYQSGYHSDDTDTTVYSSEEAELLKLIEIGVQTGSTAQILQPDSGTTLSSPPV
Protocol: At the indicated end of the experiment, the luminescence was measured by a Tecan spark microplate reader.

MCF-7 cells [5] = assay: Apoptosis by annexin-V FITC/PI double staining, MCF-7; format: cell-based, human; details: MCF-7, 48 h at the IC50 of the compound
Protocol: as §4

[6] = tested on: HepG2 human cancer-cell line; assay: MTT antiproliferative assay, HepG2; format: cell-based
Protocol: as §2, §3

[7] = MCF7, MTT, 48 h of exposure, read-out: IC50 (μM) ± SD MCF-7
[8] = MCF7, Table S5, read-out: pIC50 (exp) MCF7 (converted)
[9] = MTT, 48 h of exposure, read-out: IC50 (μM) ± SD HepG2
[10] = Table S5, read-out: pIC50(exp) HepG2 (converted)

Row | IC50 [2, 7] [µM] | IC50 [2, 8] [µM] | melting point [°C] | IC50 [6, 9] [µM] | IC50 [6, 10] [µM] | Structure (SMILES) | also measured
1 | 9.6 ± 0.5 | 9.6 | 190 to 192 | 27.7 ± 2.5 | 27.7 | CCn1c(SCCN2CCCCC2)nc2cc3ccccc3cc2c1=O [Compound 14, 3-Ethyl-2-((2-(piperidin-1-yl)ethyl)thio)benzo[g]quinazolin-4(3H)-one] | Cell Cycle Distribution %G0/G1 (HepG2 cells [1]): 38.66%; Cell Cycle Distribution %G2/M (HepG2 cells [1]): 9.03%; Cell Cycle Distribution %S (HepG2 cells [1]): 52.3% and 52.31%; Cell Cycle Distribution %G0/G1 (MCF-7 cells [3]): 66.24%; Cell Cycle Distribution %G2/M (MCF-7 cells [3]): 6.58%; Cell Cycle Distribution %S (MCF-7 cells [3]): 27.18%; Apoptosis Early (HepG2 cells [4]): 2.97%; Apoptosis Late (HepG2 cells [4]): 13.42%; Apoptosis Total (HepG2 cells [4]): 16.39%; Necrosis (HepG2 cells [4]): 6.33%; Fold Relative to Sorafenib (VEGFR-2 (KDR)): 2.0 fold; IC50 (VEGFR-2 (KDR)): 63 ± 3.9 nM; Apoptosis Early (MCF-7 cells [5]): 5.08%; Apoptosis Late (MCF-7 cells [5]): 25.68%; Apoptosis Total (MCF-7 cells [5]): 30.76%; Necrosis (MCF-7 cells [5]): 11.75%
2 | 11.2 ± 0.9 | 11.2 | 186 to 188 | 30.7 ± 3.1 | 30.7 | CCn1c(SCc2cccc(C)c2)nc2cc3ccccc3cc2c1=O [Compound 12, 3-Ethyl-2-((3-methylbenzyl)thio)benzo[g]quinazolin-4(3H)-one] | –
3 | 10.2 ± 1.1 | 10.2 | 150 to 152 | 34.8 ± 3.1 | 34.8 | Cn1c(SCc2ccccc2)nc2cc3ccccc3cc2c1=O [Compound 4, 2-(Benzylthio)-3-methylbenzo[g]quinazolin-4(3H)-one] | –
4 | 10.4 ± 1.1 | 10.4 | – | 28.9 ± 2.3 | 28.9 | Cn1c(NN)nc2cc3ccccc3cc2c1=O [Compound 16] | –
5 | 10.1 ± 0.7 | 10.1 | 115 to 117 | 29.9 ± 2.5 | 29.9 | CCSc1nc2cc3ccccc3cc2c(=O)n1C [Compound 3, 2-(Ethylthio)-3-methylbenzo[g]quinazolin-4(3H)-one] | –
6 | 10.6 ± 0.7 | 10.6 | 155 to 157 | 31.3 ± 3.1 | 31.3 | Cc1cccc(CSc2nc3cc4ccccc4cc3c(=O)n2C)c1 [Compound 5, 3-Methyl-2-((3-methylbenzyl)thio)benzo[g]quinazolin-4(3H)-one] | –
7 | 9.8 ± 1.2 | 9.8 | 201 to 203 | 36 ± 3.1 | 36 | Cn1c(SCc2ccc(C#N)cc2)nc2cc3ccccc3cc2c1=O [Compound 7, 4-(((3-Methyl-4-oxo-3,4-dihydrobenzo[g]quinazolin-2-yl)thio)methyl)benzonitrile] | –
8 | 8.8 ± 0.5 | 8.79 | 132 to 134 | 36.2 ± 3.5 | 36.2 | CCn1c(SCc2ccccc2)nc2cc3ccccc3cc2c1=O [Compound 10, 2-(Benzylthio)-3-ethylbenzo[g]quinazolin-4(3H)-one] | Cell Cycle Distribution %G0/G1 (MCF-7 cells [3]): 39.28%; Cell Cycle Distribution %G2/M (MCF-7 cells [3]): 34.6% and 34.55%; Cell Cycle Distribution %S (MCF-7 cells [3]): 26.17%; Fold Relative to Sorafenib (VEGFR-2 (KDR)): 4.5 fold; IC50 (VEGFR-2 (KDR)): 134 ± 8.2 nM; Apoptosis Early (MCF-7 cells [5]): 4.64%; Apoptosis Late (MCF-7 cells [5]): 17.03%; Apoptosis Total (MCF-7 cells [5]): 21.67%; Necrosis (MCF-7 cells [5]): 9.61%
9 | 10.7 ± 1.1 | 10.7 | – | 40.4 ± 4.1 | 40.4 | Cn1c(=S)[nH]c2cc3ccccc3cc2c1=O [Compound 1, 3-Methyl-2-thioxo-2,3-dihydrobenzo[g]quinazolin-4(1H)-one] | –
10 | 10.6 ± 1.1 | 10.6 | 140 to 142 | 34.2 ± 2.9 | 34.2 | CCn1c(SCc2cccc(C#N)c2)nc2cc3ccccc3cc2c1=O [Compound 11, 3-(((3-Ethyl-4-oxo-3,4-dihydrobenzo[g]quinazolin-2-yl)thio)methyl)benzonitrile] | –
11 | 10.9 ± 0.9 | 10.9 | – | 31.3 ± 3.1 | 31.3 | COc1cccc(CSc2nc3cc4ccccc4cc3c(=O)n2C)c1 [Compound 8, 2-((3-Methoxybenzyl)thio)-3-methylbenzo[g]quinazolin-4(3H)-one] | –
12 | 10.1 ± 0.7 | 10.1 | – | 29.8 ± 2.1 | 29.8 | CCn1c(NN)nc2cc3ccccc3cc2c1=O [Compound 17] | –
13 | 10.1 ± 1.1 | 10.1 | – | 27.5 ± 2.1 | 27.5 | CCn1c(SCc2cccc(OC)c2)nc2cc3ccccc3cc2c1=O [Compound 13, 3-Ethyl-2-((3-methoxybenzyl)thio)benzo[g]quinazolin-4(3H)-one] | Cell Cycle Distribution %G0/G1 (HepG2 cells [1]): 38.22%; Cell Cycle Distribution %G2/M (HepG2 cells [1]): 6.52%; Cell Cycle Distribution %S (HepG2 cells [1]): 55.3% and 55.26%; Cell Cycle Distribution %G2/M (MCF-7 cells [3]): 4.36%; Cell Cycle Distribution %S (MCF-7 cells [3]): 33.25%; Apoptosis Early (HepG2 cells [4]): 2.82%; Apoptosis Late (HepG2 cells [4]): 18.56%; Apoptosis Total (HepG2 cells [4]): 21.38%; Necrosis (HepG2 cells [4]): 5.74%; Fold Relative to Sorafenib (VEGFR-2 (KDR)): 1.5 fold; IC50 (VEGFR-2 (KDR)): 46.6 ± 2.8 nM; Apoptosis Early (MCF-7 cells [5]): 7.28%; Apoptosis Late (MCF-7 cells [5]): 14.94%; Apoptosis Total (MCF-7 cells [5]): 22.22%; Necrosis (MCF-7 cells [5]): 15% and 15.31%
14 | 10.5 ± 0.5 | 10.5 | – | 36.1 ± 3.6 | 36.1 | CCn1c(=S)[nH]c2cc3ccccc3cc2c1=O [Compound 2, 3-Ethyl-2-thioxo-2,3-dihydrobenzo[g]quinazolin-4(1H)-one] | –
15 | 10.3 ± 0.8 | – | – | 28.5 ± 1.9 | – | COc1cccc2c1C(=O)c1c(O)c3c(c(O)c1C2=O)C[C@@](O)(C(=O)CO)C[C@@H]3O[C@H]1C[C@H](N)[C@H](O)[C@H](C)O1 [Doxorubicin, reference compound] | –
16 | 10.7 ± 1.1 | 10.7 | 190 to 192 | 28.8 ± 2.6 | 28.8 | Cn1c(SCc2ccc(Cl)cc2)nc2cc3ccccc3cc2c1=O [Compound 6, 2-((4-Chlorobenzyl)thio)-3-methylbenzo[g]quinazolin-4(3H)-one] | –
17 | 10.2 ± 0.6 | 10.2 | 107 to 109 | 31.7 ± 3.1 | 31.7 | CCSc1nc2cc3ccccc3cc2c(=O)n1CC [Compound 9, 3-Ethyl-2-(ethylthio)benzo[g]quinazolin-4(3H)-one] | –

Row | Structure (SMILES) | IC50 [2, 7] [µM] | IC50 [2, 8] [µM] | melting point [°C] | IC50 [6, 9] [µM] | IC50 [6, 10] [µM] | also measured
18 | CCn1c(SCCCN2C(=O)c3ccccc3C2=O)nc2cc3ccccc3cc2c1=O [Compound 15, 2-(3-((3-Ethyl-4-oxo-3,4-dihydrobenzo[g]quinazolin-2-yl)thio)propyl)isoindoline-1,3-dione] | 9.4 ± 0.7 | 9.4 | – | 26 ± 2.5 | 28 | Cell Cycle Distribution %G0/G1 (HepG2 cells [1]): 31.15%; Cell Cycle Distribution %G2/M (HepG2 cells [1]): 39.2% and 39.24%; Cell Cycle Distribution %S (HepG2 cells [1]): 29.61%; Cell Cycle Distribution %G0/G1 (MCF-7 cells [3]): 43.25%; Cell Cycle Distribution %G2/M (MCF-7 cells [3]): 28.0% and 28.03%; Cell Cycle Distribution %S (MCF-7 cells [3]): 28.72%; Apoptosis Early (HepG2 cells [4]): 3.44%; Apoptosis Late (HepG2 cells [4]): 14.4%; Apoptosis Total (HepG2 cells [4]): 17.84%; Necrosis (HepG2 cells [4]): 6.27%; Fold Relative to Sorafenib (VEGFR-2 (KDR)): 1.4 fold; IC50 (VEGFR-2 (KDR)): 44.4 ± 2.6 nM; Apoptosis Early (MCF-7 cells [5]): 5.57%; Apoptosis Late (MCF-7 cells [5]): 19.73%; Apoptosis Total (MCF-7 cells [5]): 25.3%; Necrosis (MCF-7 cells [5]): 8.14%
